For five compounds, IC50 results are on record in patent US20090075987A1, “ALKYLACETYLENE SUBSTITUTED ACYLTRYPTOPHANOLS” (priority 2007, published 2009).

The target in the experiment is T1, human FSH receptor (Homo sapiens, UniProt P23945).
T1 construct: expressed in transfected cells; host or cells: CHO cells (hFSHR clone 16)
T1 sequence (P23945 18-695): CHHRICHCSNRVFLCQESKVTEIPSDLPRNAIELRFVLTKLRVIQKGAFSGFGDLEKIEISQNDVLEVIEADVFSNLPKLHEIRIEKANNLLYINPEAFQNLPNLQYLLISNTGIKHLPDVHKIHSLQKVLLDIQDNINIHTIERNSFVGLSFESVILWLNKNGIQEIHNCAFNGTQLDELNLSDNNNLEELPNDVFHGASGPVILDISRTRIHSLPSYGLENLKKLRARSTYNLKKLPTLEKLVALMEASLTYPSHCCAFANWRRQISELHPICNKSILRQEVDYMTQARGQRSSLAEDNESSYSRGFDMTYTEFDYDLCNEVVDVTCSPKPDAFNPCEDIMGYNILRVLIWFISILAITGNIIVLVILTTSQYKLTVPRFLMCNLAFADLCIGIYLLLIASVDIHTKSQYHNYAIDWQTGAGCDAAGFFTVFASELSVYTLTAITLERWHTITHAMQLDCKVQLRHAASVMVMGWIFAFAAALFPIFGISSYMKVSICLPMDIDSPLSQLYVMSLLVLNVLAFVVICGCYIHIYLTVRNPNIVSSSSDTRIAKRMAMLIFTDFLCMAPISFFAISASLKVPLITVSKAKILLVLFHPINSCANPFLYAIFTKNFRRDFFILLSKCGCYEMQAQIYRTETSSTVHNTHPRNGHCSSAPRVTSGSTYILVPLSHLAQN
The experiment is described as follows: HTRF assay for measuring cAMP in cells. The conditions noted are these: hFSHR clone 16 cells (CHO cells stably transfected with the human FSH receptor); in the presence of 1e-9 mol/l hFSH; 37° C. for 2 h; read-out: IC50 (FSH-antagonistic effect in the HTRF assay). The format is cell-based. The method, then:
HTRF Assay for Measuring cAMP in Cells
The method is based on a competitive immunoassay between native cAMP, which has been produced by the cells, and cAMP which is labelled with XL665. The tracer binding was visualized by a monoclonal antibody, anti-cAMP labelled with cryptate [HTRF=homogeneous time-resolved fluorescence].
The specific signal is inversely proportional to the cAMP concentration of the samples employed.
The 665 nm/620 nm fluorescence ratio was evaluated.
The following material was used: 96-well plates for the tissue culture, 96-well plates with black edge and black base (e.g. Fluotrac 600 from Greiner), 96-well plates for the substance dilutions of polypropylene and cAMP Femtomolar (4000 wells Kit, CIS Bio International # 62AM1PEC).
The following reagents were used: BSA (bovine serum albumin) Fraction V protease-free, IBMX (3-isobutyl-1-methylxanthine), hFSH (human follicle stimulating hormone), Triton X-100 analytical grade, potassium fluoride analytical grade, G 418 (Geneticin) and Accutase.
Buffer 1 (washing and testing buffer) contained PBS, 1 mM CaCl2, 1 mM MgCl2, 0.2% glucose; 0.1% BSA, 1 mM IBMX. Buffer 2 (2× lysis buffer) contained 1% Triton X-100 in PBS (without CaCl2 and MgCl2). Buffer 3 (assay buffer) contained 50 mM potassium phosphate buffer (pH 7.0); 800 mM potassium fluoride; 0.2% BSA (always added fresh).
On day 1, the cells were seeded in 96-well plates (3×10^4 cells per well hFSHR clone 16 cells (CHO cells stably transfected with the human FSH receptor in 150 μl of medium). The next day, test substance dilutions were made up. For this purpose, all the substances were diluted in ice-cold buffer 1 (with or without hFSH), and the substance dilutions were placed on ice until applied to the cells.
The cell supernatant was then aspirated off, and the cells were washed 2× with 200 μl of buffer 1. The cells were treated with 60 μl of the appropriate substance concentrations at 37° C. for 2 h. The cells were then lysed with 60 μl of buffer 2 (put onto the supernatant) (on a plate shaker at RT for 30 min).
The test conjugates (XL-665 and anti-cAMP cryptate) were diluted in buffer 3 in accordance with the manufacturers' information. The actual mixture for measurement was pipetted into a black 96-well plate (in each case 15 μl of the cell lysate diluted with 35 μl of buffer 1; firstly 25 μl of XL-665 conjugate were pipetted and, after 10 min, 25 μl of the anti-cAMP cryptate were added). This is followed by incubation at RT for 90 minutes. The measurement was carried out in a PheraStar (BMG).
Tissue Culture Conditions
1) hFSHr clone 16 Ham's F12 • PSG • 10% FCS • 700 μg/ml G 418 (Geneticin) from PAA.
Dose-effect curve (hFSH) for the human receptor: 1e-8, 3e-9, 1e-9, 3e-10, 1e-10, 3e-11, 1e-11, 3e-12 mol/l.
The test substances were employed in suitable dilutions in the absence (test for agonism) and in the presence of 1e-9 mol/l hFSH.
The values of the well ratio were averaged and then entered directly in SigmaPlot versus the concentrations. The maximum and minimum values were determined for each plate, and half the difference is to be regarded as IC50.

The IC50 is the midpoint of a concentration-inhibition curve. In the case of `CC(C)Oc1ccc(C#CC(C)(C)C)cc1C(=O)N[C@@H](CO)Cc1c[nH]c2ccccc12` [Example 3, 5-(3,3-Dimethyl-but-1-ynyl)-N-[(R)-1-hydroxy-methyl-2-(1H-indol-3-yl)-ethyl]-2-isopropoxy-benzamide], the IC50 was 600 nM.

With `CC(C)Oc1ccc(C#CCN2CCS(=O)(=O)CC2)cc1C(=O)N[C@@H](CO)Cc1c[nH]c2ccccc12` [Example 5, 5-[3-(1,1-Dioxo-1-lambda*6*-thiomorpho-lin-4-yl)-prop-1-ynyl]-N-[(R)-2-hydroxy-1-(1H-indol-3-ylmethyl)-ethyl]-2-isopropoxy-benzamide], the IC50 came to 4500 nM. In the case of `Cc1ccc(NC(=O)NCC#Cc2ccc(OC(C)C)c(C(=O)N[C@@H](CO)Cc3c[nH]c4ccccc34)c2)cc1` [Example 7, N-[(R)-1-Hydroxy-methyl-2-(1H-indol-3-yl)-ethyl]-2-isopropoxy-5-[3-(3-p-tolyl-ureido)-prop-1-ynyl]-benzamide], the IC50 worked out at 200 nM.

In the case of `CC(C)Oc1ccc(C#CCCCO)cc1C(=O)N[C@@H](CO)Cc1c[nH]c2ccccc12` [Example 8, N-[(R)-1-Hydroxy-methyl-2-(1H-indol-3-yl)-ethyl]-5-(5-hydroxy-pent-1-ynyl)-2-iso-propoxy-benzamide], the IC50 was 500 nM. Turning to `CNC(=O)N(C)CC#Cc1ccc(OC(C)C)c(C(=O)N[C@@H](CO)Cc2c[nH]c3ccccc23)c1` [Example 10, 5-[3-(1,3-Dimethyl-ureido)-prop-1-ynyl]-N-[(R)-1-hydroxymethyl-2-(1H-indol-3-yl)-ethyl]-2-isopropoxy-benzamide], the IC50 was found to be 6000 nM.
